Source: patent publication US6737383B1, “Herbicidal oxadiazolidines” (priority 1999, dated 2004)

Legend:
[1] = system: cocklebur; experiment: Test B pre/postemergence cocklebur; format: in vivo, Xanthium strumarium; settings: for Cocklebur plant response rating (0 to 10 scale): 0 is no effect
Summary of the method: (§1)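 Response is a visual 0-to-10 score relative to untreated plants, where 0 means no effect and 10 means complete control, taken twelve to sixteen days after application. Treatments went onto soil at planting and onto foliage of 1- to 4-leaf plants, using a surfactant-containing non-phytotoxic solvent.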

[2] = system: giant foxtail; experiment: Test B pre/postemergence giant foxtail; format: in vivo, Setaria faberii; settings: for Giant foxtail plant response rating (0 to 10 scale): 0 is no effect
Summary of the method: as §1

[3] = system: morningglory; experiment: Test B pre/postemergence morningglory; format: in vivo, Ipomoea hederacea; settings: for Morningglory plant response rating (0 to 10 scale): 0 is no effect
Summary of the method: as §1

[4] = system: winter wheat; experiment: Test E winter wheat; format: in vivo, Triticum aestivum; settings: Postemergence
Summary of the method: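 Greenhouse test: for postemergence, foliar application at 1- to 4-leaf stage; compound in non-phytotoxic solvent with surfactant. Rating is visual, relative to untreated controls, about 21 to 28 days after treatment.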

[5] = system: blackgrass; experiment: Test E blackgrass; format: in vivo, Alopecurus myosuroides; settings: Preemergence
[6] = system: green foxtail; experiment: Test E green foxtail; format: in vivo, Setaria viridis; settings: Preemergence
[7] = system: Italian ryegrass; experiment: Test E Italian ryegrass; format: in vivo, Lolium multiflorum; settings: Preemergence
[8] = system: winter wheat; experiment: Test E winter wheat; format: in vivo, Triticum aestivum; settings: Preemergence
[9] = system: wild oat; experiment: Test E wild oat; format: in vivo, Avena fatua; settings: Preemergence; for Plant response rating, Wild oat: 0 to 100 scale where 0 is no effect and 100 is complete control; for Wild oat plant response rating (0 to 100 scale): Rate 250 g/ha
[10] = system: winter barley; experiment: Test E winter barley; format: in vivo, Hordeum vulgare; settings: Preemergence
[11] = system: bamyardgrass; experiment: Test B flood test barnyardgrass; format: in vivo, Echinochloa crus-galli
Summary of the method: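 Read-out is a visual response score from 0 (no effect) to 10 (complete control), assigned by comparison with untreated controls. Treatment was applied at the 2-leaf stage, and plants stayed in the greenhouse for twelve to sixteen days before scoring.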

[12] = Postemergence, Rate 62 g/ha, scale 0 to 10, 0 is no effect, 10 is complete control
[13] = Postemergence, Rate 125 g/ha, scale of 0 to 10 where 0 is no effect and 10 is complete control
[14] = Postemergence, Rate 250 g/ha, scale 0 to 10, 0 no effect, 10 complete control
[15] = Preemergence, Rate 62 g/ha, scale 0 to 10 (0 no effect, 10 complete control)
[16] = Preemergence, Rate 125 g/ha, scale 0 to 10 (0 no effect, 10 complete control)
[17] = Preemergence, Rate 250 g/ha, scale of 0 to 10 where 0 is no effect and 10 is complete control
[18] = Preemergence, Rate 500 g/ha, scale 0 (no effect) to 10 (complete control)
[19] = Rate 500 g/ha, Postemergence, scale 0 to 10, 0 no effect, 10 complete control
[20] = Rate 1000 g/ha, 0 to 100 scale, 0 is no effect and 100 is complete control
[21] = Rate 1000 g/ha, 0 to 100 scale where 0 is no effect and 100 is complete control
[22] = Preemergence, Rate 62 g/ha, scale of 0 to 10 where 0 is no effect and 10 is complete control
[23] = Preemergence, Rate 125 g/ha, 10 is complete control
[24] = Preemergence, Rate 500 g/ha, scale 0 to 10 (0 no effect, 10 complete control)
[25] = Rate 62 g/ha, Postemergence, scale of 0 to 10 where 0 is no effect and 10 is complete control
[26] = Rate 250 g/ha, Postemergence, scale 0 to 10, 0 is no effect, 10 is complete control
[27] = Rate 500 g/ha, Postemergence, scale 0 to 10
[28] = Preemergence, Rate 250 g/ha, scale 0 to 10, 0 is no effect, 10 is complete control
[29] = Rate 500 g/ha, 0 to 100 scale where 0 is no effect and 100 is complete control
[30] = Postemergence, Rate 1000 g/ha, scale 0 to 10 (0 no effect, 10 complete control)
[31] = Preemergence, Rate 125 g/ha, scale of 0 to 10 where 0 is no effect and 10 is complete control
[32] = Preemergence, Rate 500 g/ha, scale of 0 to 10 where 0 is no effect and 10 is complete control
[33] = Rate 500 g/ha, Postemergence, scale 0 to 10, 0 is no effect, 10 is complete control
[34] = Rate 1000 g/ha, Preemergence, scale 0 to 10 (0 no effect, 10 complete control)

Cc1ccccc1Cn1c(=O)on(C(=O)N(c2ccc(F)cc2)C(C)C)c1=O [Compound 88]
Cocklebur plant response rating [1, 12]: 0
Cocklebur plant response rating [1, 13]: 0
Cocklebur plant response rating [1, 14]: 1
Cocklebur plant response rating [1, 15]: 0
Plant response rating, Cocklebur [1, 16]: 0
Plant response rating, Cocklebur [1, 17]: 0
Cocklebur plant response rating [1, 18]: 0
Cocklebur plant response rating [1, 19]: 5
Giant foxtail plant response rating [2, 12]: 0
Giant foxtail plant response rating [2, 13]: 3
Giant foxtail plant response rating [2, 14]: 3
Giant foxtail plant response rating [2, 15]: 4
Plant response rating, Giant foxtail [2, 16]: 6
Plant response rating, Giant foxtail [2, 17]: 10
Giant foxtail plant response rating [2, 18]: 10
Giant foxtail plant response rating [2, 19]: 3
Morningglory plant response rating [3, 12]: 8
Morningglory plant response rating [3, 13]: 10
Morningglory plant response rating [3, 14]: 10
Morningglory plant response rating [3, 15]: 0
Plant response rating, Morningglory [3, 16]: 0
Plant response rating, Morningglory [3, 17]: 0
Morningglory plant response rating [3, 18]: 0
Morningglory plant response rating [3, 19]: 10
Plant response rating, Wheat (winter) ([4]; Rate 250 g/ha, 0 to 100 scale (0 no effect, 100 complete control)): 0
Plant response rating, Wheat (winter) [4, 20]: 10
Plant response rating, Blackgrass ([5]; Rate 250 g/ha, 0 to 100 scale): 50
Plant response rating, Blackgrass [5, 21]: 50
Plant response rating, Green foxtail ([6]; Rate 250 g/ha, 0 to 100 scale): 60
Plant response rating, Green foxtail [6, 21]: 85
Plant response rating, I. Ryegrass ([7]; Rate 250 g/ha, 0 to 100 scale): 10
Plant response rating, I. Ryegrass [7, 21]: 50
Plant response rating, Wheat (winter) ([8]; Rate 250 g/ha, 0 to 100 scale): 0
Plant response rating, Wheat (winter) [8, 21]: 10
Plant response rating, Wild oat ([9]; Rate 1000 g/ha): 20
Plant response rating, Barley (winter) ([10]; Rate 250 g/ha, 0 to 100 scale): 0
Plant response rating, Barley (winter) [10, 21]: 0

CC(C)N(C(=O)n1oc(=O)n(CC(F)(F)F)c1=O)c1ccc(F)cc1 [Compound 163]
Cocklebur plant response rating [1, 13]: 0
Cocklebur plant response rating [1, 22]: 0
Cocklebur plant response rating (0 to 10 scale) [1, 23]: 0
Cocklebur plant response rating [1, 24]: 0
Cocklebur plant response rating [1, 25]: 0
Plant response rating, Cocklebur [1, 26]: 3
Cocklebur plant response rating [1, 27]: 3
Giant foxtail plant response rating [2, 13]: 7
Giant foxtail plant response rating [2, 22]: 8
Giant foxtail plant response rating (0 to 10 scale) [2, 23]: 8
Giant foxtail plant response rating [2, 28]: 8
Giant foxtail plant response rating [2, 24]: 10
Giant foxtail plant response rating [2, 25]: 6
Plant response rating, Giant foxtail [2, 26]: 8
Giant foxtail plant response rating [2, 27]: 8
Morningglory plant response rating [3, 13]: 2
Morningglory plant response rating [3, 22]: 0
Morningglory plant response rating (0 to 10 scale) [3, 23]: 0
Morningglory plant response rating [3, 28]: 0
Morningglory plant response rating [3, 24]: 0
Morningglory plant response rating [3, 25]: 2
Plant response rating, Morningglory [3, 26]: 5
Morningglory plant response rating [3, 27]: 8
Plant response rating, Wheat (winter) [4, 20]: 70
Plant response rating, Wheat (winter) ([4]; Rate 500 g/ha, 0 to 100 scale, 0 no effect, 100 complete control): 50
Wheat (winter) plant response rating ([4]; Rate 250 g/ha, 0 to 100 scale where 0 is no effect and 100 is complete control): 40
Blackgrass plant response rating (0 to 100 scale) ([5]; Rate 250 g/ha): 30
Plant response rating, Blackgrass [5, 29]: 40
Plant response rating, Blackgrass [5, 21]: 50
Green foxtail plant response rating (0 to 100 scale) ([6]; Rate 250 g/ha): 100
Plant response rating, Green foxtail [6, 29]: 100
Plant response rating, Green foxtail [6, 21]: 100
I. Ryegrass plant response rating (0 to 100 scale) ([7]; Rate 250 g/ha): 30
Plant response rating, I. Ryegrass [7, 29]: 50
Plant response rating, I. Ryegrass [7, 21]: 60
Wheat (winter) plant response rating (0 to 100 scale) ([8]; Rate 250 g/ha): 30
Plant response rating, Wheat (winter) [8, 21]: 55
Wild oat plant response rating (0 to 100 scale) [9]: 50
Plant response rating, Wild oat ([9]; Rate 500 g/ha): 60
Plant response rating, Wild oat ([9]; Rate 1000 g/ha): 70
Barley (winter) plant response rating (0 to 100 scale) ([10]; Rate 250 g/ha): 30
Plant response rating, Barley (winter) [10, 29]: 40
Plant response rating, Barley (winter) [10, 21]: 50

CC1CCCCC1n1c(=O)on(C(=O)N(c2ccc(F)cc2F)C(C)C)c1=O (centres unmarked) [Compound 172]
Cocklebur plant response rating [1, 13]: 0
Cocklebur plant response rating [1, 22]: 0
Cocklebur plant response rating (0 to 10 scale) [1, 23]: 0
Cocklebur plant response rating [1, 28]: 0
Cocklebur plant response rating [1, 24]: 0
Cocklebur plant response rating [1, 25]: 0
Plant response rating, Cocklebur [1, 26]: 0
Cocklebur plant response rating [1, 27]: 2
Giant foxtail plant response rating [2, 13]: 0
Giant foxtail plant response rating [2, 22]: 8
Giant foxtail plant response rating (0 to 10 scale) [2, 23]: 9
Giant foxtail plant response rating [2, 28]: 10
Giant foxtail plant response rating [2, 24]: 10
Giant foxtail plant response rating [2, 25]: 0
Plant response rating, Giant foxtail [2, 26]: 0
Giant foxtail plant response rating [2, 27]: 0
Morningglory plant response rating [3, 13]: 5
Morningglory plant response rating [3, 22]: 0
Morningglory plant response rating (0 to 10 scale) [3, 23]: 0
Morningglory plant response rating [3, 28]: 0
Morningglory plant response rating [3, 24]: 0
Morningglory plant response rating [3, 25]: 2
Plant response rating, Morningglory [3, 26]: 5
Morningglory plant response rating [3, 27]: 8
Plant response rating, Wheat (winter) [4, 20]: 50
Plant response rating, Wheat (winter) ([4]; Rate 500 g/ha, 0 to 100 scale, 0 is no effect, 100 is complete control): 40
Blackgrass plant response rating (0 to 100 scale) ([5]; Rate 250 g/ha): 50
Plant response rating, Blackgrass [5, 29]: 60
Plant response rating, Blackgrass [5, 21]: 80
Green foxtail plant response rating (0 to 100 scale) ([6]; Rate 250 g/ha): 60
Plant response rating, Green foxtail [6, 29]: 85
Plant response rating, Green foxtail [6, 21]: 100
I. Ryegrass plant response rating (0 to 100 scale) ([7]; Rate 250 g/ha): 30
Plant response rating, I. Ryegrass [7, 29]: 65
Plant response rating, I. Ryegrass [7, 21]: 80
Wheat (winter) plant response rating (0 to 100 scale) ([8]; Rate 250 g/ha): 10
Plant response rating, Wheat (winter) [8, 29]: 20
Plant response rating, Wheat (winter) [8, 21]: 30
Wild oat plant response rating (0 to 100 scale) [9]: 30
Plant response rating, Wild oat ([9]; Rate 500 g/ha): 40
Plant response rating, Wild oat ([9]; Rate 1000 g/ha): 50
Barley (winter) plant response rating (0 to 100 scale) ([10]; Rate 250 g/ha): 40
Plant response rating, Barley (winter) [10, 29]: 40
Plant response rating, Barley (winter) [10, 21]: 20

COC(=O)C(c1ccccc1)n1c(=O)on(C(=O)N(c2ccc(F)cc2)C(C)C)c1=O (centres unmarked) [Compound 677]
Cocklebur plant response rating [1, 13]: 0
Cocklebur plant response rating [1, 30]: 1
Plant response rating, Cocklebur [1, 31]: 0
Plant response rating, Cocklebur ([1]; Preemergence, Rate 250 g/ha, scale 0 to 10 (0 no effect, 10 complete control)): 0
Plant response rating, Cocklebur [1, 32]: 0
Cocklebur plant response rating [1, 26]: 0
Cocklebur plant response rating [1, 33]: 1
Plant response rating, Cocklebur [1, 34]: 0
Giant foxtail plant response rating [2, 13]: 0
Giant foxtail plant response rating [2, 30]: 5
Plant response rating, Giant foxtail [2, 31]: 5
Plant response rating, Giant foxtail [2, 32]: 10
Giant foxtail plant response rating [2, 26]: 2
Giant foxtail plant response rating [2, 33]: 4
Plant response rating, Giant foxtail [2, 34]: 10
Morningglory plant response rating [3, 13]: 2
Plant response rating, Morningglory [3, 31]: 0
Plant response rating, Morningglory [3, 32]: 0
Morningglory plant response rating [3, 26]: 4
Morningglory plant response rating [3, 33]: 7
Plant response rating, Morningglory [3, 34]: 0
Barnyardgrass plant response rating ([11]; Pre-emergence, Rate 1000 g/ha, scale 0 to 10 (0 no effect, 10 complete control)): 0
Barnyardgrass plant response rating (0 to 10 scale, 0 is no effect, 10 is complete control) ([11]; Rate 125 g/ha, under heading Pre-emergence, flood test species, visual evaluation after twelve to sixteen days): 0
Barnyardgrass plant response rating ([11]; Rate 250 g/ha, Pre-emergence (flood test species), scale 0 to 10, 0 is no effect, 10 is complete control): 0
Barnyardgrass plant response rating ([11]; Rate 500 g/ha, Pre-emergence section of Table B, 0 to 10 scale (0 no effect, 10 complete control)): 0
